Experimental findings from patent US20260159512A1, “BCAT2 INHIBITORS” (AGIOS PHARMACEUTICALS, INC., priority 2021, published 2026) are described below.

Common to all, as to conditions: average where tested multiple times
One assay addresses T1, hBCAT1 (Homo sapiens, UniProt P54687).
T1 sequence (P54687 1-386): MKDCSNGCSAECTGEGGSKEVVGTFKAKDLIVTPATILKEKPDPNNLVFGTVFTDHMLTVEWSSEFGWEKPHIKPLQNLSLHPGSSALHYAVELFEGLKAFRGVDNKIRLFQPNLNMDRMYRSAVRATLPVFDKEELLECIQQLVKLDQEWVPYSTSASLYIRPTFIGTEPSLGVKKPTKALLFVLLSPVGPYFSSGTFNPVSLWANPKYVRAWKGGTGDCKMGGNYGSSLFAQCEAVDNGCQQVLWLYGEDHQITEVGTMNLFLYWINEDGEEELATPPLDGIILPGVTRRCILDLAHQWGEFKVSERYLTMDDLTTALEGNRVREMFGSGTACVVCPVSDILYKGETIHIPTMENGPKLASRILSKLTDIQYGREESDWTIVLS
In words: BCAT1 in vitro enzyme inhibition assay (resazurin/diaphorase-coupled fluorescence). The assay is classed as biochemical. The gist of the method: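 Ten-point, 3-fold compound series (top final 100 μM, delivered 1:50 from 50× DMSO stocks) tested against hBCAT1. Inhibition detected via diaphorase-coupled resazurin fluorescence, duplicate wells, with values from repeated runs averaged.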
A general note: The colour change of resazurin is a common sign of viable cells or microbes.

The target in assay [1] is T2, BCAT2 (Homo sapiens, UniProt O15382).
T2 sequence (O15382 28-392): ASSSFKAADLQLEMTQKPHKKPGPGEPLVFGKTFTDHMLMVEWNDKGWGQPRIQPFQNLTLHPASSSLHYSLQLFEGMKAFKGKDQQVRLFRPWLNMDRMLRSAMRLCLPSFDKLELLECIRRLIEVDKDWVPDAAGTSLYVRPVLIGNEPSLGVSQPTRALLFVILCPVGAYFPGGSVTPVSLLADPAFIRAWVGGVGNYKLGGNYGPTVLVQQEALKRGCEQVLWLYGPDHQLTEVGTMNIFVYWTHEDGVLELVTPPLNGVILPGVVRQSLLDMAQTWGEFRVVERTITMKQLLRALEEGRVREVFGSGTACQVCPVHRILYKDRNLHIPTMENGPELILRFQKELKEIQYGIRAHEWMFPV
The assay can be described thus: BCAT2 in vitro cell inhibition using engineered A549 cells (KMV cell assay, 13C6-KMV by LC-MS/MS). The assay is classed as cell-based. More on the design: The result was an engineered A549 cell line that expressed endogenous BCAT2; endogenous in cells; host or cells: A549 cells with MUT and BCAT1 knocked out by CRISPR/CAS9; key to BCAT2 Cell Inhibition: A: less than or equal to 0.100 μM; B: greater than 0.100 and less than or equal to 0.500 μM; C: greater than 0.500 and less than or equal to 1.000 μM; d: greater than 1.000 μM; E: no fit.

The target of assay [2] is T2, BCAT2. In words: BCAT2 in vitro enzyme inhibition assay (resazurin/diaphorase-coupled fluorescence). The assay is classed as biochemical. The gist of the method:
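Coupled fluorescence readout: glutamate formed from L-leucine/α-ketoglutarate transamination drives GDH/NAD/diaphorase reduction of resazurin (Ex 540/Em 590). Human BCAT2 was first exposed 1 h at room temperature to compound, top final 100 μM in 3-fold, 10-point series; substrate reaction ran 1 h before SDS quench, in technical duplicate with DMSO max and enzyme-free min controls.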

Where only a bound is given, the exact number is not on record here.

By IC50 is commonly meant the concentration that gives 50% inhibition. With `O=C(N[C@H]1CCC[C@@H](n2c(-c3ncccc3F)nc3cnc(-n4cncn4)cc32)C1)c1ccc(Br)s1` [Example 16, 5-bromo-N-((1S,3R)-3-(2-(3-fluoropyridin-2-yl)-6-(1H-1,2,4-triazol-1-yl)-1H-imidazo[4,5-c]pyridin-1-yl)cyclohexyl)thiophene-2-carboxamide], the results for the IC50 against hBCAT1, on BCAT2 [1] and against BCAT2 [2] were below 500 nM, at most 100 nM and at most 100 nM, respectively.
`CC(C)Cc1nc2cnc(-c3cccc(F)n3)cc2n1[C@H]1C[C@H](O)C[C@@H](NC(=O)c2ncc(Cl)s2)C1` (stereo in doubt) [Example 385, 5-chloro-N-((1S,3R,5R)-3-(6-(6-fluoropyridin-2-yl)-2-isobutyl-1H-imidazo[4,5-c]pyridin-1-yl)-5-hydroxycyclohexyl)thiazole-2-carboxamide]: the IC50 at hBCAT1 was below 500 nM; against BCAT2 [1], 100 to 500 nM; on BCAT2 [2], at most 100 nM.
Taken in the same sequence, the figures for `C#Cc1ccc(C(=O)NC2CC(n3c(-c4ccccc4F)nc4cnc(-c5ncco5)cc43)CN(C)C2)s1` (stereo not drawn) [Example 116, 5-ethynyl-N-(5-(2-(2-fluorophenyl)-6-(oxazol-2-yl)-1H-imidazo[4,5-c]pyridin-1-yl)-1-methylpiperidin-3-yl)thiophene-2-carboxamide] were below 500 nM, at most 100 nM and at most 100 nM.
Taken in the same sequence, the figures for `CC(C)Oc1nc2cnc(-n3nccn3)cc2n1[C@@H]1CCC[C@H](NC(=O)c2ncc(C(F)F)s2)C1` [Example 79, 5-(difluoromethyl)-N-((1S,3R)-3-(2-isopropoxy-6-(2H-1,2,3-triazol-2-yl)-1H-imidazo[4,5-c]pyridin-1-yl)cyclohexyl)thiazole-2-carboxamide] were above 5000 nM, above 1000 nM and 100 to 500 nM.
Taken in the same sequence, the figures for `O=C(N[C@H]1CCC[C@@H](n2c(-c3ccccc3F)nc3cnc(-c4nc[nH]n4)cc32)[C@@H]1O)c1ncc(Cl)s1` [Example 400, 5-chloro-N-((1S,2R,3R)-3-(2-(2-fluorophenyl)-6-(1H-1,2,4-triazol-3-yl)-1H-imidazo[4,5-c]pyridin-1-yl)-2-hydroxycyclohexyl)thiazole-2-carboxamide] were below 500 nM, at most 100 nM and at most 100 nM.
In the case of `O=C(N[C@H]1CCC[C@@H](n2c(-c3ncccc3F)nc3cnc(-c4ncco4)cc32)C1)c1ccc(Br)s1` [Example 6, 5-bromo-N-((1S,3R)-3-(2-(3-fluoropyridin-2-yl)-6-(oxazol-2-yl)-1H-imidazo[4,5-c]pyridin-1-yl)cyclohexyl)thiophene-2-carboxamide], the values for the IC50 against hBCAT1, on BCAT2 [1] and against BCAT2 [2] were below 500 nM, at most 100 nM and at most 100 nM, respectively.
In the case of `CC(C)Cc1nc2cnc(-n3cc(CO)nn3)cc2n1[C@@H]1CCC[C@H](NC(=O)c2ncc(Cl)s2)C1` [Example 346, 5-chloro-N-((1S,3R)-3-(6-(4-(hydroxymethyl)-1H-1,2,3-triazol-1-yl)-2-isobutyl-1H-imidazo[4,5-c]pyridin-1-yl)cyclohexyl)thiazole-2-carboxamide], the IC50 against hBCAT1 is above 5000 nM; at BCAT2 [1], above 1000 nM; on BCAT2 [2] it was 100 to 500 nM.
Taken in the same sequence, the figures for `N#Cc1ccccc1-c1nc2cnc(-c3nc[nH]n3)cc2n1[C@@H]1CCC[C@H](NC(=O)c2ccc(Cl)s2)C1` [Example 356, 5-chloro-N-((1S,3R)-3-(2-(2-cyanophenyl)-6-(1H-1,2,4-triazol-3-yl)-1H-imidazo[4,5-c]pyridin-1-yl)cyclohexyl)thiophene-2-carboxamide] were 500 to 1000 nM, at most 100 nM and at most 100 nM.
Taken in the same sequence, the figures for `C#Cc1cnc(C(=O)N[C@H]2CCC[C@@H](n3c(-c4ncccc4F)nc4cnc(-n5ccnn5)cc43)C2)s1` [Example 36, 5-ethynyl-N-((1S,3R)-3-(2-(3-fluoropyridin-2-yl)-6-(1H-1,2,3-triazol-1-yl)-1H-imidazo[4,5-c]pyridin-1-yl)cyclohexyl)thiazole-2-carboxamide] were 500 to 1000 nM, 100 to 500 nM and at most 100 nM.
In the same order, the values of `N#Cc1ccc(F)c(-c2nc3cnc(-c4nc[nH]n4)cc3n2[C@@H]2CCC[C@H](NC(=O)c3ccc(Cl)s3)C2)c1` [Example 345, 5-chloro-N-((1S,3R)-3-(2-(5-cyano-2-fluorophenyl)-6-(1H-1,2,4-triazol-3-yl)-1H-imidazo[4,5-c]pyridin-1-yl)cyclohexyl)thiophene-2-carboxamide] are 500 to 1000 nM, 500 to 1000 nM and 100 to 500 nM.
Turning to `CNC(=O)c1ccc2c(c1)nc(-c1ccccn1)n2C1CC(NC(=O)c2ccc(Br)s2)CN(C)C1` (stereo not drawn) [Example 288, 1-(5-(5-bromothiophene-2-carboxamido)-1-methylpiperidin-3-yl)-N-methyl-2-(pyridin-2-yl)-1H-benzo[d]imidazole-5-carboxamide], the IC50 is above 5000 nM at hBCAT1 and 500 to 1000 nM on BCAT2 [2]. Further, at BCAT2 [1], the “BCAT2 Cell Inhibition” value is given as “E”.
For the compound `O=C(NC1CCCC(n2c(-c3ncccc3F)nc3cnc(-c4ccccn4)cc32)C1O)c1ncc(Cl)s1` (stereo not drawn) [Example 220, 5-chloro-N-(3-(2-(3-fluoropyridin-2-yl)-6-(pyridin-2-yl)-1H-imidazo[4,5-c]pyridin-1-yl)-2-hydroxycyclohexyl)thiazole-2-carboxamide], the half-inhibitory concentration (IC50) on hBCAT1 was below 500 nM; against BCAT2 [1] it was at most 100 nM; at BCAT2 [2] it was at most 100 nM.
Consider `O=C(N[C@H]1CCC[C@@H](n2c(-c3ccccc3F)nc3cnc(-c4ccccn4)cc32)[C@@H]1O)c1ncc(Cl)s1` [Example 242, 5-chloro-N-((1S,2R,3R)-3-(2-(2-fluorophenyl)-6-(pyridin-2-yl)-1H-imidazo[4,5-c]pyridin-1-yl)-2-hydroxycyclohexyl)thiazole-2-carboxamide], for which the IC50 on hBCAT1 is below 500 nM; on BCAT2 [1], at most 100 nM; at BCAT2 [2], at most 100 nM.
As to `CNC(=O)c1cc2nc(-c3ccccc3F)n(C3CC(NC(=O)c4ccc(Br)s4)CN(C)C3)c2cc1OC` (stereo not drawn) [Example 291, 1-(5-(5-bromothiophene-2-carboxamido)-1-methylpiperidin-3-yl)-2-(2-fluorophenyl)-6-methoxy-N-methyl-1H-benzo[d]imidazole-5-carboxamide], the IC50 against hBCAT1 was 1000 to 5000 nM; against BCAT2 [1], 100 to 500 nM; against BCAT2 [2] it was at most 100 nM.
As to `Cc1nc2cnc(-n3ccnn3)cc2n1[C@@H]1CCC[C@H](NC(=O)c2ccc(Br)s2)C1` [Example 52, 5-bromo-N-((1S,3R)-3-(2-methyl-6-(1H-1,2,3-triazol-1-yl)-1H-imidazo[4,5-c]pyridin-1-yl)cyclohexyl)thiophene-2-carboxamide], the IC50 was above 5000 nM at hBCAT1 and above 1000 nM against BCAT2 [2]. Moreover, the “BCAT2 Cell Inhibition” value on BCAT2 [1] was “E”.
As for `Cc1coc(-c2cc3c(cn2)nc(-c2ccccc2F)n3[C@@H]2CCC[C@H](NC(=O)c3ncc(Cl)s3)[C@H]2O)n1` [Example 238, 5-chloro-N-((1S,2R,3R)-3-(2-(2-fluorophenyl)-6-(4-methyloxazol-2-yl)-1H-imidazo[4,5-c]pyridin-1-yl)-2-hydroxycyclohexyl)thiazole-2-carboxamide], the results for the IC50 against hBCAT1, on BCAT2 [1] and against BCAT2 [2] were below 500 nM, at most 100 nM and at most 100 nM, respectively.
